Consider 22 compounds from patent US8618289B2 (Ambit Biosciences Corporation, priority 2008, dated 2013).

Test [1] has as its target RAF kinases (Homo sapiens, UniProt P04049). The conditions noted are these: read-out: RAF1 Kd; RAF1.
Method: (§1) Competition binding assays used herein were developed, validated and performed as described in Fabian et al., Nature Biotechnology 2005, 23, 329-336. […] The liganded beads were blocked with excess biotin and washed with blocking buffer (SeaBlock (Pierce), 1% BSA, 0.05% Tween 20, 1 mM DTT) to remove unbound ligand and to reduce non-specific binding. […] Test compounds were prepared as 100× stocks in DMSO and rapidly diluted into the aqueous environment. DMSO was added to control assays lacking a test compound. Primary screen interactions were performed in polypropylene 384-well plates in a final volume of 34 μt, while Kd determinations were performed in polystyrene 96-well plates in a final volume of 135 pt. […] The kinase concentration in the eluates was measured by quantitative PCR. Each kinase was tested individually against each compound. Kds were determined using eleven serial threefold dilutions. A selectivity score, which is a quantitative measure of selectivity of a compound against a panel of enzymes, may be calculated for a compound by dividing the number of enzymes for which a compound meets a set criteria, (for example, a binding constant of 100 nM or less), by the total number of enzymes tested. […] (Note, for those compounds tested in a larger kinase panel, as indicated by an asterisk (*) next to the S35 score, the divisor is 321 (i.e. the larger panel contains 321 distinct kinases, excluding mutant variants.)).
Test [2] concerns the target RAF kinases (Homo sapiens, UniProt P15056). The conditions noted are these: read-out: BRAF WT Kd; BRAF WT.
Method: as §1
Test [3] concerns the target RAF kinases (Homo sapiens, UniProt P15056, V600E). As to conditions: read-out: BRAF V600E Kd; BRAF V600E.
Method: as §1
Test [4] relates to MEK1 phosphorylation in the A375 human melanoma cell line. Briefly: cells. As to conditions: A-375, read-out: pMEK IC50.
The subject of test [5] is A375 cells. The test can be described thus: cells. The conditions noted are these: Homo sapiens, A-375, read-out: A375 Viability EC50.
Method: The following day, the medium was replaced with 0.5% FBS in M3 for overnight incubation. […] The cells were incubated with compound or control for 72 hours at 37° C. under 10% CO2. Following incubation, Cell Titer Blue reagent (Promega) was added to each well containing compounds or controls, and then incubated for 3 hours at 37° C. under 10% CO2. Proliferation was measured by fluorescence with excitation at 560 nm and emission at 590 nm using SoftMax Pro.

Sequence of RAF kinases (Homo sapiens, UniProt P15056, V600E) (P15056 whole entry V600E): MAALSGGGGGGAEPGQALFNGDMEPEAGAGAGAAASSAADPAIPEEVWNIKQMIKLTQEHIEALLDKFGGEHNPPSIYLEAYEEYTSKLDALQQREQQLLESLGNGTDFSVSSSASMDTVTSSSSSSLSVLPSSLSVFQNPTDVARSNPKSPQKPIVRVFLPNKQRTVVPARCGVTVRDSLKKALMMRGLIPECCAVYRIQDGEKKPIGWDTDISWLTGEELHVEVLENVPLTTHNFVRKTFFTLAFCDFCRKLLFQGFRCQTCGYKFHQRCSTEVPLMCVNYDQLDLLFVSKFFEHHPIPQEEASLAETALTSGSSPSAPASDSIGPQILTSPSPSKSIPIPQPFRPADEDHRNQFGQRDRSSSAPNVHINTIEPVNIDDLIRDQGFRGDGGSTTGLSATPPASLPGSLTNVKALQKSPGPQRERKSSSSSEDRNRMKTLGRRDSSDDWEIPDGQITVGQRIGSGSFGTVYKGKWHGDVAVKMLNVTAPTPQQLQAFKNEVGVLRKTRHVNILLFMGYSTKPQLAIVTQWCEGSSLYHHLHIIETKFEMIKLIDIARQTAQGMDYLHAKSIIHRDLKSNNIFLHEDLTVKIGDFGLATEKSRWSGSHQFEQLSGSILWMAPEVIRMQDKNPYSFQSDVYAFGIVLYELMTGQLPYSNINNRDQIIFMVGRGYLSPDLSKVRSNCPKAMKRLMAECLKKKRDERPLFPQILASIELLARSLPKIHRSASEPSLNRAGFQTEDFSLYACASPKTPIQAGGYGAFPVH
Sequence of RAF kinases (Homo sapiens, UniProt P15056) (P15056 whole entry): as the sequence (P15056 whole entry V600E) above, with E600V counted along it
Sequence of RAF kinases (Homo sapiens, UniProt P04049) (P04049 whole entry): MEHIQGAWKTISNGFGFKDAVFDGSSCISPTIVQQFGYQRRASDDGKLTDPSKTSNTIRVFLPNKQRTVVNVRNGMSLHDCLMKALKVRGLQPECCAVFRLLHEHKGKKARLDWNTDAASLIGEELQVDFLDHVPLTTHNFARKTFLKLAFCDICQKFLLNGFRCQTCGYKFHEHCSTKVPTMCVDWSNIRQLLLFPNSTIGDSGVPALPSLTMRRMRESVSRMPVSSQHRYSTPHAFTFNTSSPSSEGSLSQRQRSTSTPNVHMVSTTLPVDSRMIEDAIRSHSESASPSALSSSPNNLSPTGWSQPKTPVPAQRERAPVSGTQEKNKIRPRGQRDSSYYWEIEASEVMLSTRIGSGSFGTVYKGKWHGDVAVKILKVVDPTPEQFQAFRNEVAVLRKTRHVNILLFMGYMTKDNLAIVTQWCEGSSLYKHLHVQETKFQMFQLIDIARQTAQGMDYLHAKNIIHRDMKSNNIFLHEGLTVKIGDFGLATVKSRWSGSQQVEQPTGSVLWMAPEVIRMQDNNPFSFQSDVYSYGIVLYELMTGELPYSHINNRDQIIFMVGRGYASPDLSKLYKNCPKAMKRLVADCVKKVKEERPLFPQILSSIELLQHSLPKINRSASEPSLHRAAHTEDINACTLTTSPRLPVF

By Kd is commonly meant the constant that tells how readily two partners part at equilibrium. By IC50 is commonly meant the concentration that gives 50% inhibition. Broadly, the EC50 is the concentration at which the effect is half-maximal. For the compound `COc1cc2ncnc(Oc3cccc(NC(=O)Nc4cc(C(C)(C)C(F)(F)F)no4)c3)c2cc1OC` [Ex 267, 1-(3-(6,7-dimethoxyquinazolin-4-yloxy)phenyl)-3-(3-(1,1,1-trifluoro-2-methylpropan-2-yl)isoxazol-5-yl)urea], the dissociation constant Kd in test [1], in test [2] and in test [3] was below 250 nM in each case. In addition, the IC50 in test [4] was below 250 nM. For the same compound, the EC50 in test [5] was 500 to 1000 nM.
Regarding `COc1cc2ncnc(Sc3cccc(NC(=O)Nc4cc(C(C)(C)C(F)(F)F)no4)c3)c2cc1OC` [Ex 268, 1-(3-(6,7-dimethoxyquinazolin-4-ylthio)phenyl)-3-(3-(1,1,1-trifluoro-2-methylpropan-2-yl)isoxazol-5-yl)urea], the Kd in test [1], in test [2] and in test [3] was below 250 nM throughout. Also, in test [4], the IC50 was below 250 nM. For the same compound, the EC50 in test [5] was in the range of 500 to 1000 nM.
Turning to `COc1cc2ncnc(Oc3cc(NC(=O)Nc4cc(C(C)(C)F)no4)c(F)cc3F)c2cc1OC` [Ex 269, 1-(5-(6,7-dimethoxyquinazolin-4-yloxy)-2,4-difluorophenyl)-3-(3-(2-fluoropropan-2-yl)isoxazol-5-yl)urea], the Kd in test [1], in test [2] and in test [3] was below 250 nM in each case. The IC50 in test [4] is below 250 nM. The EC50 in test [5] is below 250 nM.
For `COc1cc2ncnc(Oc3cc(NC(=O)Nc4cc(C(C)(C)C)on4)c(F)cc3F)c2cc1OC` [Ex 270, 1-(5-tert-butylisoxazol-3-yl)-3-(5-(6,7-dimethoxyquinazolin-4-yloxy)-2,4-difluorophenyl)urea], the Kd in test [1], in test [2] and in test [3] was below 250 nM each time. Also, in test [4], the IC50 was below 250 nM. Further, the EC50 in test [5] is below 250 nM.
Regarding `COc1cc2ncnc(Oc3cccc(NC(=O)Nc4cccc(C(C)(C)C#N)c4)c3)c2cc1OC` [Ex 278, 1-(3-(2-cyanopropan-2-yl)phenyl)-3-(3-(6,7-dimethoxyquinazolin-4-yloxy)phenyl)urea], the Kd in test [1], in test [2] and in test [3] was below 250 nM in each case. Moreover, in test [4], the IC50 fell in the range of 250 to 500 nM. Besides, the EC50 in test [5] was 500 to 1000 nM.
In the case of `COc1cc2ncnc(Sc3cccc(NC(=O)Nc4cccc(C(C)(C)C#N)c4)c3)c2cc1OC` [Ex 279, 1-(3-(2-cyanopropan-2-yl)phenyl)-3-(3-(6,7-dimethoxyquinazolin-4-ylthio)phenyl)urea], the Kd in test [1], in test [2] and in test [3] was below 250 nM in each case. Also, the IC50 in test [4] is 250 to 500 nM. Besides, in test [5], the EC50 is above 1000 nM.
In the case of `COCCOc1cc2ncnc(Oc3cccc(NC(=O)Nc4cccc(C(C)(C)C#N)c4)c3)c2cc1OC` [Ex 280, 1-(3-(2-cyanopropan-2-yl)phenyl)-3-(3-(6-methoxy-7-(2-methoxyethoxy)quinazolin-4-yloxy)phenyl)urea], the Kd in test [1], in test [2] and in test [3] was below 250 nM throughout. In addition, the IC50 in test [4] lay within 500 to 1000 nM. For the same compound, the EC50 in test [5] was above 1000 nM.
Turning to `COc1cc2ncnc(Sc3cccc(NC(=O)Nc4cc(C(C)(C)C)nn4-c4ccc(C)cc4C)c3)c2cc1OC` [Ex 284, 1-(3-tert-butyl-1-(2,4-dimethylphenyl)-1H-pyrazol-5-yl)-3-(3-(6,7-dimethoxyquinazolin-4-ylthio)phenyl)urea], the Kd in test [1], in test [2] and in test [3] was above 1000 nM in each case. Moreover, the IC50 in test [4] was below 250 nM. Moreover, the EC50 in test [5] is above 1000 nM.
As to `COc1cc2ncnc(Oc3cccc(NC(=O)Nc4cc(C(C)(C)F)no4)c3F)c2cc1OC` [Ex 296, 1-(3-(6,7-dimethoxyquinazolin-4-yloxy)-2-fluorophenyl)-3-(3-(2-fluoropropan-2-yl)isoxazol-5-yl)urea], the Kd in test [1], in test [2] and in test [3] was below 250 nM each time. Moreover, the IC50 in test [4] is above 1000 nM. Also, the EC50 in test [5] was above 1000 nM.
Take `COc1cc2ncnc(Oc3cccc(NC(=O)Nc4cc(C(C)(CF)CF)on4)c3F)c2cc1OC` [Ex 297, 1-(5-(1,3-difluoro-2-methylpropan-2-yl)isoxazol-3-yl)-3-(3-(6,7-dimethoxyquinazolin-4-yloxy)-2-fluorophenyl)urea]: the Kd in test [1], in test [2] and in test [3] was below 250 nM in each case. Further, in test [4], the IC50 was 250 to 500 nM. The EC50 in test [5] lay in the range of 250 to 500 nM.
On to `COc1cc2ncnc(Oc3ccc(Cl)c(NC(=O)Nc4cc(C(C)(C)C)nn4-c4ccc(C)cc4)c3)c2cc1OC` [Ex 298, 1-(3-tert-butyl-1-p-tolyl-1H-pyrazol-5-yl)-3-(2-chloro-5-(6,7-dimethoxyquinazolin-4-yloxy)phenyl)urea], for which the Kd in test [1], in test [2] and in test [3] was above 1000 nM each time. In addition, the IC50 in test [4] is below 250 nM. In test [5], the EC50 is below 250 nM.
Turning to `COc1cc2ncnc(Oc3ccc(Cl)c(NC(=O)Nc4cc(C(C)(C)C)nn4-c4ccccc4)c3)c2cc1OC` [Ex 301, 1-(3-tert-butyl-1-phenyl-1H-pyrazol-5-yl)-3-(2-chloro-5-(6,7-dimethoxyquinazolin-4-yloxy)phenyl)urea], the dissociation constant Kd in test [1], in test [2] and in test [3] was above 1000 nM each time. For the same compound, the IC50 in test [4] is below 250 nM. Moreover, the EC50 in test [5] was 250 to 500 nM.
In the case of `COc1cc2ncnc(Oc3ccc(F)c(NC(=O)Nc4cc(C(C)(C)C)on4)c3)c2cc1OC` [Ex 367, 1-(5-tert-butylisoxazol-3-yl)-3-(5-(6,7-dimethoxyquinazolin-4-yloxy)-2-fluorophenyl)urea], the Kd in test [1], in test [2] and in test [3] was below 250 nM in each case. Besides, the IC50 in test [4] is below 250 nM. For the same compound, the EC50 in test [5] was 250 to 500 nM.
In the case of `COc1cc2ncnc(Oc3cccc(NC(=O)Nc4cc(C5(C(F)(F)F)CC5)on4)c3)c2cc1OC` [Ex 377, 1-(3-(6,7-dimethoxyquinazolin-4-yloxy)phenyl)-3-(5-(1-(trifluoromethyl)cyclopropyl)isoxazol-3-yl)urea], the Kd in test [1], in test [2] and in test [3] was below 250 nM throughout. In test [4], the IC50 was below 250 nM. The EC50 in test [5] was below 250 nM.
Turning to `COc1cc2ncnc(Sc3cccc(NC(=O)Nc4cc(C5(C(F)(F)F)CC5)on4)c3)c2cc1OC` [Ex 378, 1-(3-(6,7-dimethoxyquinazolin-4-ylthio)phenyl)-3-(5-(1-(trifluoromethyl)cyclopropyl)isoxazol-3-yl)urea], the Kd in test [1], in test [2] and in test [3] was below 250 nM each time. For the same compound, in test [4], the IC50 lay within 250 to 500 nM. In addition, the EC50 in test [5] was below 250 nM.
As to `COc1cc2ncnc(Sc3cccc(NC(=O)Nc4cc(C(F)(F)F)no4)c3)c2cc1OC` [Ex 382, 1-(3-(6,7-dimethoxyquinazolin-4-ylthio)phenyl)-3-(3-(trifluoromethyl)isoxazol-5-yl)urea], the Kd in test [1], in test [2] and in test [3] was below 250 nM throughout. Besides, the IC50 in test [4] was above 1000 nM. Moreover, in test [5], the EC50 is above 1000 nM.
As to `CCOc1cc2ncnc(Oc3cccc(NC(=O)Nc4cc(C(C)(C)F)no4)c3)c2cc1OC` [Ex 385, 1-(3-(7-ethoxy-6-methoxyquinazolin-4-yloxy)phenyl)-3-(3-(2-fluoropropan-2-yl)isoxazol-5-yl)urea], the Kd in test [1], in test [2] and in test [3] was below 250 nM throughout. Further, the IC50 in test [4] was in the range of 250 to 500 nM. Further, in test [5], the EC50 fell in the range of 250 to 500 nM.
For `CCOc1cc2ncnc(Oc3cccc(NC(=O)Nc4cc(C(C)(CF)CF)on4)c3)c2cc1OC` [Ex 386, 1-(5-(1,3-difluoro-2-methylpropan-2-yl)isoxazol-3-yl)-3-(3-(7-ethoxy-6-methoxyquinazolin-4-yloxy)phenyl)urea], the Kd in test [1], in test [2] and in test [3] was below 250 nM in each case. Further, in test [4], the IC50 was below 250 nM. For the same compound, the EC50 in test [5] was below 250 nM.
With `CCOc1cc2ncnc(Sc3cccc(NC(=O)Nc4cc(C(C)(C)F)no4)c3)c2cc1OC` [Ex 389, 1-(3-(7-ethoxy-6-methoxyquinazolin-4-ylthio)phenyl)-3-(3-(2-fluoropropan-2-yl)isoxazol-5-yl)urea], the equilibrium dissociation constant (Kd) in test [1], in test [2] and in test [3] was below 250 nM throughout. Besides, the IC50 in test [4] lay in the range of 500 to 1000 nM. Moreover, the EC50 in test [5] lay in the range of 250 to 500 nM.
In the case of `CCOc1cc2c(Oc3cccc(NC(=O)Nc4cc(C(C)(C)F)no4)c3)ncnc2cc1OC` [Ex 392, 1-(3-(6-ethoxy-7-methoxyquinazolin-4-yloxy)phenyl)-3-(3-(2-fluoropropan-2-yl)isoxazol-5-yl)urea], the Kd in test [1], in test [2] and in test [3] was below 250 nM throughout. Besides, in test [4], the IC50 was below 250 nM. Further, the EC50 in test [5] was below 250 nM.
Turning to `CCOc1cc2c(Oc3cccc(NC(=O)Nc4cc(C(C)(CF)CF)on4)c3)ncnc2cc1OC` [Ex 393, 1-(5-(1,3-difluoro-2-methylpropan-2-yl)isoxazol-3-yl)-3-(3-(6-ethoxy-7-methoxyquinazolin-4-yloxy)phenyl)urea], the Kd in test [1], in test [2] and in test [3] was below 250 nM in each case. The IC50 in test [4] was below 250 nM. In addition, the EC50 in test [5] was below 250 nM.
`CCOc1cc2c(Sc3cccc(NC(=O)Nc4cc(C(C)(C)F)no4)c3)ncnc2cc1OC` [Ex 394, 1-(3-(6-ethoxy-7-methoxyquinazolin-4-ylthio)phenyl)-3-(3-(2-fluoropropan-2-yl)isoxazol-5-yl)urea]: the Kd in test [1], in test [2] and in test [3] was below 250 nM each time. Also, the IC50 in test [4] is below 250 nM. The EC50 in test [5] lay within 250 to 500 nM.
